Source: patent US11911346B2, “Orally administrated therapeutic for treating mild cognitive impairment (MCI) and improving human cognitive function” (BrainCare LLC, priority 2021, dated 2024)

Columns and labels:
salivary testosterone = details: olfactory exposure to 3% BCP over 20 minutes, women with low libido; cited from earlier work
acute or chronic pain = details: 60 mg of BCP daily, by day 4; 31 participants; cited from earlier work
[1] = test system: concentration and attention of participants with Subjective Cognitive Decline; assay: Cambridge Brain Sciences (CBS) Feature Match test; format: in vivo, human; details: for Feature Match actual score: Week 4, normal 87-113; for Feature Match percentage change: Week 8, over 8 weeks
Description: The Cambridge Brain Sciences (CBS) included a battery of four tests to measure various aspects of cognition and that affected different regions of the brain. Normal scores for each test ranged from 87 to 113.
The fourth test is the Feature Match (aka Feature Selection), which addresses concentration and attention, and correlates well with aging. It can detect early Alzheimer's disease, and non-Alzheimer's dementia.
The data are presented as mean±standard deviation (S.D.) at baseline, week 4, and week 8. Results from the Cognitive Failures Questionnaire and Cambridge Brain Sciences are compared using the Student's t-test in each intervention group between baseline and week 4 and between baseline and week 8. Significance was defined as p≤0.05. At each time point, the percentage change was compared with the values at baseline. This calculation was only obtained from the means between each time point, and the statistical analysis was not made on these percentage changes.
For Cambridge Brain Sciences tests, some responses were flagged as being a highly unusual response (found in less than 1% of Cambridge Brain Sciences normative database). […] These scores were considered to be invalid and excluded from the final analysis. For each participant, the combined mean scores of all four CBS tests were summed for at baseline and at week 8. The participants were then grouped according to these mean baseline score of all four tests as: below average (less than or equal to 100) and average and above (greater than 100).

[2] = one capsule daily (90 mg BCP), N=24
[3] = two capsules daily (180 mg BCP), N=25
[4] = two capsules daily (180 mg BCP)

C=C1CC/C=C(\C)CC[C@@H]2[C@@H]1CC2(C)C [BCP, beta-caryophyllene]
Salivary testosterone vs. control period (salivary testosterone): increased
% of participants reporting mitigation of pain (acute or chronic pain): 60%
Feature Match: % of participants with no change between baseline and week 8 [1, 2]: (13%)
Feature Match: number of participants improved between baseline and week 8 [1, 2]: 13
Feature Match: number of participants with no change between baseline and week 8 [1, 2]: 3
Feature Match: number of participants worsened between baseline and week 8 [1, 2]: 8
Feature Match actual score ([1]; one capsule daily (90 mg BCP)): 98.3 ± 6.9
Feature Match percentage change ([1]; one capsule daily (90 mg BCP)): +2.0%
Feature Match: % of participants with no change between baseline and week 8 [1, 3]: (16%)
Feature Match: number of participants improved between baseline and week 8 [1, 3]: 10
Feature Match: number of participants with no change between baseline and week 8 [1, 3]: 4
Feature Match: number of participants worsened between baseline and week 8 [1, 3]: 11
Feature Match actual score [1, 4]: 98.4 ± 7.6
Feature Match percentage change [1, 4]: No change
